Source: paper PMC5375154, “Atypical protein disulfide isomerases (PDI): Comparison of the molecular and catalytic properties of poplar PDI-A and PDI-M with PDI-L1A” (PLoS ONE, 2017)

Columns and labels:
PDI-M (PtPDI-M) = biological target: T1, PDI-M (PtPDI-M) (Populus trichocarpa, UniProt B9IAL5); test: NADPH/AtNTRB-coupled DTNB reduction, absorbance at […] nm; format: biochemical; conditions: 200 μM NADPH, 2 μM AtNTRB, 100 μM DTNB, 0.2 μM PDI, pH 8.0, 25°C
T1 construct: gene POPTR_014G160000; pET-15b, His-tagged; E. coli BL21(DE3) pSBET; a°-a-b organisation
T1 sequence (B9IAL5 25-434): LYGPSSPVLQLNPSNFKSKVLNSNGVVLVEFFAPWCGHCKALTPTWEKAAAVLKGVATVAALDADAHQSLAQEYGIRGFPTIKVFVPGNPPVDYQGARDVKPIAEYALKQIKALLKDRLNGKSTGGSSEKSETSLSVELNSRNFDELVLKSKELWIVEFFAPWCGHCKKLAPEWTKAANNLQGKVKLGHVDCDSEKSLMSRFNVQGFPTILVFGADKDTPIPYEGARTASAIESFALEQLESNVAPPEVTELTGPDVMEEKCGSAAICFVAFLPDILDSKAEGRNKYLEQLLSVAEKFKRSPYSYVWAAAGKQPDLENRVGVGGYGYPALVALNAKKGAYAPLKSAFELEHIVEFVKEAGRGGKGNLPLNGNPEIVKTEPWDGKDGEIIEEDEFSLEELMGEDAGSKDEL

PDI-A (PtPDI-A) = biological target: T2, PDI-A (PtPDI-A) (Populus trichocarpa, UniProt B9HQP9); test: UV-visible absorption, iron and sulfide quantification, size-exclusion chromatography; format: binding; conditions: as isolated after E. coli expression, anaerobic purification; pH 8.0; cluster proposed to bridge a dimer; cluster type not definitively assigned
T2 construct: gene POPTR_009G004500; pET-15b, His-tagged; E. coli BL21(DE3) pSBET; purified anaerobically; ca 15 kDa; dimeric and probable octameric forms; WCKHC active site
T2 sequence (B9HQP9 27-147): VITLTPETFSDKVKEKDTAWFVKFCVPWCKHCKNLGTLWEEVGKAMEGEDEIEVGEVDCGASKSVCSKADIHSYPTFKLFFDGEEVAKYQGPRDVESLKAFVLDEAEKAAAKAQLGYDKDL

| SMILES | DTNB reduction activity (PDI-M (PtPDI-M)) | UV-visible absorption, iron and sulfide quantification, size-exclusion chromatog (PDI-A (PtPDI-A)) |
| --- | --- | --- |
| O=C(O)c1cc(SSc2ccc([N+](=O)[O-])c(C(=O)O)c2)ccc1[N+](=O)[O-] [DTNB] | PDI-L1a was more efficient than PDI-M and PDI-A was inactive (Fig 2C) | – |
| [S]1[Fe][S][Fe]1 [[Fe2S2] cluster] | – | results could be consistent with PDI-A binding a [Fe2S2] cluster into a dimer |
